Several values for one entry are separate records, joined by “and”; a condition that tells them apart may be missing. Identical values can stand only once. ± gives the uncertainty stated by the source.

A short description of data set [1]: xn = mol fraction of the nth substance listed. The note with it: 101 kPa.

As to `CC1(C)OC1C#N` (stereo not drawn), the viscosity (commonly the resistance of a fluid to flow) is, setting by setting: (293.15 K, 101 kPa) 1.337 ± 0.035 mPa·s; (298.15 K, 101 kPa) 1.223 ± 0.032 mPa·s; (303.15 K, 101 kPa) 1.1 ± 0.029 mPa·s; (313.15 K, 101 kPa) 0.938 ± 0.025 mPa·s; (323.15 K, 101 kPa) 0.79 ± 0.021 mPa·s.

On to `CCCC(C)CO` (stereo not drawn), for which the viscosity (298.15 K, 101.33 kPa) is 5.304 ± 0.049 mPa·s and 5.304 ± 0.043 mPa·s.

In the case of `CCCCC(CC)COC(C)=O` (stereo not drawn), the viscosity (293.15 K, 101.33 kPa) came to 1.471 ± 0.2 mPa·s; the viscosity (303.15 K, 101.33 kPa) is given as 1.234 ± 0.18 mPa·s; the viscosity (313.15 K, 101.33 kPa) stood at 1.051 ± 0.16 mPa·s; the viscosity (323.15 K, 101.33 kPa) was determined as 0.906 ± 0.15 mPa·s.

Consider `CCCCCCCCCCBr`, for which the viscosity by setting is: (297.75 K, 101 kPa) 2.35 ± 0.051 mPa·s; (303.95 K, 101 kPa) 2.08 ± 0.045 mPa·s; (313.55 K, 101 kPa) 1.75 ± 0.038 mPa·s.

In the case of `CCCCCCCCCCCC(=O)OCC`, the viscosity reads like this: (293.15 K, 100 kPa) 3.374 ± 0.074 mPa·s; (293.15 K, 101.33 kPa) 3.374 ± 0.14 mPa·s; (303.15 K, 101.33 kPa) 2.695 ± 0.031 mPa·s; (308.15 K, 100 kPa) 2.43 ± 0.053 mPa·s; (308.15 K, 101.33 kPa) 2.43 ± 0.1 mPa·s; (313.15 K, 100 kPa) 2.203 ± 0.048 mPa·s. Besides, the viscosity is, setting by setting: (313.15 K, 101.33 kPa) 2.203 ± 0.09 mPa·s and 2.045 ± 0.024 mPa·s; (323.15 K, 100 kPa) 1.827 ± 0.04 mPa·s; (323.15 K, 101.33 kPa) 1.827 ± 0.075 mPa·s.

Turning to `CCCCCCCCCCN`, the viscosity (303.15 K, 101 kPa) was found to be 1.766 ± 0.019 mPa·s.

`CCCCCCCC[P+](CC)(CC)CC.Cc1nc([N+](=O)[O-])c[n-]1`: the viscosity is 920 ± 57 mPa·s (293.15 K, 100 kPa); 623 ± 33 mPa·s (298.15 K, 100 kPa); 435 ± 20 mPa·s (303.15 K, 100 kPa); 313 ± 12 mPa·s (308.15 K, 100 kPa); 231 ± 8 mPa·s (313.15 K, 100 kPa); 174 ± 5 mPa·s (318.15 K, 100 kPa). The viscosity (323.15 K, 100 kPa) is given as 135 ± 3 mPa·s.

As to `CCCC[NH3+].O=[N+]([O-])[O-]`, under “298 K, 101 kPa”, the viscosity is 108.5 ± 4.4 mPa·s.

`CCCN(CCC)CCC` registered a viscosity (293.15 K, 101 kPa) of 0.67 ± 0.009 mPa·s; a viscosity (298.15 K, 101 kPa) of 0.523 ± 0.006 mPa·s; a viscosity (303.15 K, 101 kPa) of 0.495 ± 0.005 mPa·s; a viscosity (308.15 K, 101 kPa) of 0.46 ± 0.01 mPa·s; a viscosity (313.15 K, 101 kPa) of 0.45 ± 0.01 mPa·s; a viscosity (318.15 K, 101 kPa) of 0.412 ± 0.004 mPa·s. The compound also had a viscosity (323.15 K, 101 kPa) of 0.38 ± 0.004 mPa·s.

On to `CCN(CC)c1ccccc1`, for which the viscosity runs as follows: (298 K, 101 kPa) 1.919 ± 0.049 mPa·s; (298 K, 101.3 kPa) 1.933 ± 0.051 mPa·s; (298.15 K, 101 kPa) 1.93 ± 0.12 mPa·s and 1.77 ± 0.05 mPa·s and 1.93 ± 0.051 mPa·s; (303.15 K, 101 kPa) 1.72 ± 0.04 mPa·s and 1.525 ± 0.04 mPa·s; (308 K, 101 kPa) 1.534 ± 0.04 mPa·s; (308 K, 101.3 kPa) 1.547 ± 0.041 mPa·s. For the same compound, the viscosity reads like this: (308.15 K, 101 kPa) 1.55 ± 0.03 mPa·s; (313 K, 101.3 kPa) 1.41 ± 0.038 mPa·s; (313.15 K, 101 kPa) 1.35 ± 0.04 mPa·s; (318.15 K, 101 kPa) 1.274 ± 0.034 mPa·s; (323.15 K, 101 kPa) 1.15 ± 0.08 mPa·s and 1.07 ± 0.03 mPa·s.

As to `CCOC(=O)CC(=O)OCC`, the viscosity runs as follows: (303.15 K, 101 kPa) 1.728 ± 0.037 mPa·s; (308.15 K, 101 kPa) 1.57 ± 0.034 mPa·s; (313.15 K, 101 kPa) 1.456 ± 0.031 mPa·s.

`ClCCCCl`: the viscosity (298.15 K, 101 kPa) was 0.9443 ± 0.008 mPa·s.

For the compound `Clc1ccc(Cl)c(Cl)c1`, the viscosity was determined as 1.785 ± 0.011 mPa·s (303.15 K, 101 kPa); 1.472 ± 0.012 mPa·s (313.15 K, 100 kPa); 1.472 ± 0.031 mPa·s (313.15 K, 101 kPa); 1.329 ± 0.012 mPa·s (318.15 K, 100 kPa); 1.329 ± 0.028 mPa·s (318.15 K, 101 kPa).

On to `FC(F)(Cl)C(F)(F)Cl`, for which the viscosity is, setting by setting: (293.35 K, 101 kPa) 0.3524 ± 0.0096 mPa·s; (313.05 K, 101 kPa) 0.2877 ± 0.0078 mPa·s.

With `CCCCCCCCCCN` + c1ccccc1, the viscosity worked out at 1.464 ± 0.016 mPa·s in data set [1] (303.15 K, x2 = 0.2011); 1.174 ± 0.013 mPa·s in data set [1] (303.15 K, x2 = 0.3988); 1.043 ± 0.011 mPa·s in data set [1] (303.15 K, x2 = 0.4963); 0.923 ± 0.01 mPa·s in data set [1] (303.15 K, x2 = 0.5993); 0.7207 ± 0.008 mPa·s in data set [1] (303.15 K, x2 = 0.7973).

On to `CCCN(CCC)CCC` + c1ccccc1, for which the viscosity in data set [1] (303.15 K, x1 = 0.01039) amounted to 0.5599 ± 0.0043 mPa·s; in data set [1] (303.15 K, x1 = 0.02061), 0.5574 ± 0.0043 mPa·s; in data set [1] (303.15 K, x1 = 0.03067) it was 0.5552 ± 0.0043 mPa·s; in data set [1] (303.15 K, x1 = 0.04025), 0.5532 ± 0.0043 mPa·s; in data set [1] (303.15 K, x1 = 0.04975) it was 0.5515 ± 0.0043 mPa·s; in data set [1] (303.15 K, x1 = 0.05958) it was 0.5487 ± 0.0043 mPa·s. Also, the viscosity turned out to be 0.5467 ± 0.0042 mPa·s in data set [1] (303.15 K, x1 = 0.06933); 0.5453 ± 0.0043 mPa·s in data set [1] (303.15 K, x1 = 0.07883); 0.5429 ± 0.0042 mPa·s in data set [1] (303.15 K, x1 = 0.08893); 0.4902 ± 0.0039 mPa·s in data set [1] (313.15 K, x1 = 0.01039); 0.4877 ± 0.0039 mPa·s in data set [1] (313.15 K, x1 = 0.02061); 0.4859 ± 0.0039 mPa·s in data set [1] (313.15 K, x1 = 0.03067). Besides, the viscosity in data set [1] (313.15 K, x1 = 0.04025) was determined as 0.4836 ± 0.0039 mPa·s; in data set [1] (313.15 K, x1 = 0.04975), 0.4818 ± 0.0039 mPa·s; in data set [1] (313.15 K, x1 = 0.05958), 0.4793 ± 0.0039 mPa·s; in data set [1] (313.15 K, x1 = 0.06933), 0.4772 ± 0.0039 mPa·s; in data set [1] (313.15 K, x1 = 0.07883), 0.476 ± 0.0039 mPa·s; in data set [1] (313.15 K, x1 = 0.08893), 0.4738 ± 0.0039 mPa·s.

The values are drawn from the CheMixHub viscosity set.
